# Laboratory results reported in BindingDB's records for patent US20240018140 (Merck Sharp & Dohme, 2024).
# Target: T1, Ceramide glucosyltransferase (Homo sapiens, UniProt Q16739)
# T1 sequence (Q16739 whole entry): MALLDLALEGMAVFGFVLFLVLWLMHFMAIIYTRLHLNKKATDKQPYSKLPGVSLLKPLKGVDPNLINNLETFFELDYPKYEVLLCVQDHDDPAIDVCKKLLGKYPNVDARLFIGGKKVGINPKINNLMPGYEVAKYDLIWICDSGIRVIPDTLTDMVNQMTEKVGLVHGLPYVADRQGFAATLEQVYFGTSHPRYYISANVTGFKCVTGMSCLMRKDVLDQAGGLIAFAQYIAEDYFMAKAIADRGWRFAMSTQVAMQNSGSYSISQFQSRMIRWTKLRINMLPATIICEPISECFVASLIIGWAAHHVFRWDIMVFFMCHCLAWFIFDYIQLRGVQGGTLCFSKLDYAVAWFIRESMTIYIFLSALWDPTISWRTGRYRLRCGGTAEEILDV
# Test: UDP-Glo Glucosylceramide Synthase Biochemical Assay
# Protocol: Using Promega's UDP-Glo Glycosyltransferase assay kit (Promega Corporation, Madison, WI, USA (Promega)), GCS activity was indirectly measured by detecting the amount of UDP produced. An aliquot of GCS enzyme (1.5 μg crude golgi preparation, total protein) and titrated test compound were aliquoted to each well and incubated for 30 minutes at room temperature. […] An equivalent volume of substrate mixture was then added to each well. Following a 20 h incubation at room temperature to allow for GCS turnover of substrate, an equal volume of UDP detection reagent (Promega) was added to each well and incubated for an additional 75 minutes at room temperature to simultaneously convert the accumulated UDP product into ATP and generate light in a luciferase reaction. The generated light was detected using a luminometer.
row,EC50,SMILES
1,2.4 nM,"COCC1(NC(=O)c2cn3cc(Cl)cc(-c4ccccc4OCC(F)(F)F)c3n2)CC1 [US20240018140, Compound 6]"
2,1.2 nM,"CN1CCN(C(=O)c2cn3cc(Cl)cc(-c4ccccc4OCC(F)(F)F)c3n2)CC1(C)C [US20240018140, Compound 7]"
